“And” between values parts separate entries of the source, which are not always exact repeats. Equal values may be shown once.
System: murine macrophages (RAW 267.4 cell line) stimulated with LPS from E. coli
Assay: In vitro anti-inflammatory test: inhibition of NO production in LPS-stimulated murine macrophages (Griess reaction)
Format: cell-based
Conditions: for Anti-inflammatory ratio: ratio between anti-inflammatory activity and toxicity (IC50 NO release and IC50 cell viability)
From the text: Low-grade inflammation is strongly implicated in degenerative processes in human skin such as photoaging and atopy. The reduction of low-intensity inflammatory reactions by topical products may be necessary in the event of cutaneous aggression, to obtain optimal healing and restore the physiological balance of human skin. In order to identify new anti-inflammatory candidates, an in vitro anti-inflammatory test was developed with a murine cell line: the murine macrophage test RAW 267.4. This test was used to monitor the inhibitory effects of chemical compounds or natural extracts on the low-intensity inflammatory cascade leading to overproduction of nitrogen oxide (NO) in the endothelial wall of blood vessels.
The study was carried out to evaluate the ability of cannabidiol, palmitoyl tripeptide-8 (active ingredient in Neutrazen™), and their mixture to inhibit the pro-inflammatory cascade leading to the production of NO in murine macrophages stimulated by liposaccharides (LPS).
The in vitro anti-inflammatory test is based on the ability of murine macrophages to generate a strong inflammatory response when stimulated by antigens such as LPS. Immobilized murine macrophages (RAW 267.4 cell line) are stimulated with LPS from E. coli and exposed for 24 hours. At the end of the incubation period, the production of NO is evaluated indirectly by measuring the accumulation of nitrite/nitrate, stable final products of the oxidation of NO, in the culture medium using a method spectrophotometric based on the Griess reaction.
MURINS RAW 267.4 Macrophage cell line (Sigma-Aldrich, No. P6110401, Lot. 091006), low number of passages (less than 50).
Complete medium: DMEM with stabilized L-glutamine (Dulbecco's Minimum Essential Medium, PAN BIOTECH. Lot 974251) supplemented with Penicillin 100 IU/ml and streptomycin 100 μg/m1 (PAN BIOTECH, Lot 225614), and 10% inactivated calf serum (PAN BIOTECH, Lot P460518), pH 7.2, freshly prepared, stored for less than 3 weeks.
Cannabidiol (CBD) is diluted in DMSO (10 mg/mL storage solution), and subjected to an ultrasonic bath for 20 minutes. The Neutrazen™ solution is diluted in PBS (Phosphate buffer saline, Sigma-Aldrich).
The negative control: DMSO 1% The positive control: Dexamethasone (Sigma-Aldrich) 1-5-10-50-100 μM.
RAW 267.4 murine macrophages were inoculated into 48-well tissue culture plates at a concentration of 1.10^5 cells/ml (200 μl/well) and incubated for 24 hours at 37° C. (5% CO2).
At the end of the incubation period, the culture medium was replaced with 200 μl of medium containing the appropriate concentrations of the material to be tested, and the cells were incubated at 37° C. (5% CO2) for one hour.
At the end of the incubation period, pro-inflammatory E. coli LPS was added to the cell cultures (1 μg/ml. Then the cells were incubated at 37° C. (5% CO2) for 24 hours.
The amount of NO released was measured in the culture supernatant by the Griess reaction. 100 μl of the supernatants were transferred into the wells of a 96-well tissue culture plate, and modified Griess reagent (SIGMA-ALDRICH) were added to each well. After a period of 15 min at room temperature, the Optical Density (OD) of each well was read at a wavelength of 540 nm by an Infinite M200 Pro fluorescence-luminescence reader (TECAN).
The concentrations of test material causing a 50% decrease in NO release (IC50 (NO release)) and a 50% decrease in cell viability (IC50 (cell viability)) respectively were calculated using TableCurve software Version 2.0.
The anti-inflammatory ratio corresponds to the ratio between anti-inflammatory activity and toxicity. It is expressed as follows: […]
Analysis of the anti-inflammatory activity and of the cell viability of the cannabidiol/palmitoyl tripeptide-8 (Neutrazen™) association in a mixture by isobologram analysis.

C=C(C)[C@@H]1CCC(C)=C[C@H]1c1c(O)cc(CCCCC)cc1O [CBD]
NO production (% as compared to the negative control) (CBD 0.01 weight % in mixture with NeutraZen 0.01%): 94.48% and 98.73% and 100.63%
NO production (% as compared to the negative control) (CBD 0.01 weight % in mixture with NeutraZen 0.025%): 98.77% and 101.91% and 100.00%
NO production (% as compared to the negative control) (CBD 0.01 weight % in mixture with NeutraZen 0.05%): 100.00% and 103.82% and 103.16%
NO production (% as compared to the negative control) (CBD 0.01 weight % in mixture with NeutraZen 0.1%): 101.23% and 103.82% and 98.10%
NO production (% as compared to the negative control) (CBD 0.025 weight % in mixture with NeutraZen 0.01%): 87.12% and 89.17% and 92.41%
NO production (% as compared to the negative control) (CBD 0.025 weight % in mixture with NeutraZen 0.025%): 92.64% and 96.18% and 96.84%
NO production (% as compared to the negative control) (CBD 0.025 weight % in mixture with NeutraZen 0.05%): 93.87% and 100.00% and 98.10%
NO production (% as compared to the negative control) (CBD 0.025 weight % in mixture with NeutraZen 0.1%): 103.07% and 101.27% and 100.63%
NO production (% as compared to the negative control) (CBD 0.05 weight % in mixture with NeutraZen 0.01%): 84.66% and 85.99% and 88.61%
NO production (% as compared to the negative control) (CBD 0.05 weight % in mixture with NeutraZen 0.025%): 84.66% and 87.90% and 87.34%
NO production (% as compared to the negative control) (CBD 0.05 weight % in mixture with NeutraZen 0.05%): 84.05% and 86.62% and 87.97%
NO production (% as compared to the negative control) (CBD 0.05 weight % in mixture with NeutraZen 0.1%): 79.75% and 84.71% and 82.28%
NO production (% as compared to the negative control) (CBD 0.1 weight % in mixture with NeutraZen 0.01%): 80.37% and 77.07% and 85.44%
NO production (% as compared to the negative control) (CBD 0.1 weight % in mixture with NeutraZen 0.025%): 79.75% and 80.89% and 82.28%
NO production (% as compared to the negative control) (CBD 0.1 weight % in mixture with NeutraZen 0.05%): 79.75% and 79.62% and 83.54%
NO production (% as compared to the negative control) (CBD 0.1 weight % in mixture with NeutraZen 0.1%): 72.39% and 74.52% and 74.68%
NO production (% as compared to the negative control) (CBD 0.25 weight % in mixture with NeutraZen 0.01%): 53.37% and 61.15% and 60.76%
NO production (% as compared to the negative control) (CBD 0.25 weight % in mixture with NeutraZen 0.025%): 47.24% and 49.04% and 51.90%
NO production (% as compared to the negative control) (CBD 0.25 weight % in mixture with NeutraZen 0.05%): 47.24% and 52.87% and 47.47%
NO production (% as compared to the negative control) (CBD 0.25 weight % in mixture with NeutraZen 0.1%): 50.92% and 43.95% and 50.00%
NO production (% as compared to the negative control) (CBD 0.5 weight % in mixture with NeutraZen 0.01%): 0% and 0.63%
NO production (% as compared to the negative control) (CBD 0.5 weight % in mixture with NeutraZen 0.025%): 0%
NO production (% as compared to the negative control) (CBD 0.5 weight % in mixture with NeutraZen 0.05%): 0% and 4.46% and 1.27%
NO production (% as compared to the negative control) (CBD 0.5 weight % in mixture with NeutraZen 0.1%): 0% and 1.27%
NO production (% as compared to the negative control) (CBD 1 weight % in mixture with NeutraZen 0.01%): 0%
NO production (% as compared to the negative control) (CBD 1 weight % in mixture with NeutraZen 0.025%): 0%
NO production (% as compared to the negative control) (CBD 1 weight % in mixture with NeutraZen 0.05%): 0%
NO production (% as compared to the negative control) (CBD 1 weight % in mixture with NeutraZen 0.1%): 0%
NO production (% as compared to the negative control) (CBD 2.5 weight % in mixture with NeutraZen 0.01%): 0%
NO production (% as compared to the negative control) (CBD 2.5 weight % in mixture with NeutraZen 0.025%): 0%
NO production (% as compared to the negative control) (CBD 2.5 weight % in mixture with NeutraZen 0.05%): 0%
NO production (% as compared to the negative control) (CBD 2.5 weight % in mixture with NeutraZen 0.1%): 0%
IC50-NO release (non-linear regression of 3 series of experiments, weight %, for mixtures CBD concentration at the fixed Neutrazen concentration): 0.319 ± 0.006%
Anti-inflammatory ratio: <1
Anti-inflammatory ratio (listed as cannabidiol): less than 1
NO production (% as compared to the negative control) (sample alone at 0.01 weight %): 99.39% and 100.64% and 102.53%
NO production (% as compared to the negative control) (sample alone at 0.025 weight %): 96.93% and 97.45% and 98.10%
NO production (% as compared to the negative control) (sample alone at 0.05 weight %): 97.55% and 89.17% and 93.04%
NO production (% as compared to the negative control) (sample alone at 0.1 weight %): 95.09% and 99.36% and 99.37%
NO production (% as compared to the negative control) (sample alone at 0.25 weight %): 77.91% and 80.25% and 81.65%
NO production (% as compared to the negative control) (sample alone at 0.5 weight %): 2.45% and 5.10% and 2.53%
NO production (% as compared to the negative control) (sample alone at 1 weight %): 0.61% and 1.91% and 1.90%
NO production (% as compared to the negative control) (sample alone at 2.5 weight %): 0.00% and 2.55% and 1.27%

— patent US20230255864A1, “NOVEL COMPOSITIONS COMBINING HEMP DERIVATIVES AND AT LEAST ONE PEPTIDE AND USE THEREOF” (FRANCE COSMEPHYL-LAB, priority 2020, published 2023)
